Patent US10894798B2, “Substituted dihydropyrrolopyrazole derivative” (UBE INDUSTRIES, LTD., priority 2015, dated 2021)

Assays:
CDK7 = biological target: T1, CDK7 (Homo sapiens, UniProt P50613); assay: CDK7 enzyme inhibition test; format: biochemical; settings: [γ-33P]ATP, MBP substrate, 60 min preincubation at 25°C; Ki=IC50/(1+S/Km); read-out: Ki value of CDK7 inhibitory activity
T1 construct: purchased Carna Biosciences, Inc. 04-108
Experimental: (§1) The preparation of a buffer solution was performed by mixing a N-2-hydroxyethylpiperazine-N′-2-ethanesulfonic acid buffer solution (HEPES buffer solution) (pH 7.4), dithiothreitol (DTT), Triton X-100, and magnesium chloride (MgCl2). A 500 μM [γ-^33P]ATP solution was used by diluting a 10 mM ATP solution and a commercially available [γ-^33P]ATP solution (manufactured by PerkinElmer, Inc., Code No. NEG-302H) with the buffer solution. A CDK7 solution was used by diluting commercially available CDK7 (manufactured by Carna Biosciences, Inc., Catalog No. 04-108) with the buffer solution. A substrate solution was used by diluting myelin basic protein (MBP) with the buffer solution. As for the preparation of a reaction solution, the buffer solution, the CDK7 solution, and the substrate solution were mixed at 4° C. to obtain a reaction solution.
CDK7 enzyme reaction was performed by adding 5 μL of a test compound solution prepared with 10% DMSO/90% injectable distilled water, and 40 μL of the reaction solution to a 1.5 mL microtube at 4° C. and preincubating the microtube at 25° C. for 60 minutes in a water bath incubator. Subsequently, reaction was performed at 30° C. for 20 minutes by adding 5 μL of the 500 μM [γ-^33P]ATP solution. After the reaction, a 10% aqueous trichloroacetic acid (TCA) solution was added to each microtube while cooled to 4° C., and mixed in a vortex mixer to terminate the reaction. The resultant was left standing at 4° C. for 10 minutes and then centrifuged, and the supernatant was discarded. Next, a 2% aqueous trichloroacetic acid (TCA) solution was added thereto, mixed in a vortex mixer, and then centrifuged, and the supernatant was discarded. This washing operation was performed twice. After the washing, precipitates were dissolved in a 1 N aqueous sodium hydroxide (NaOH) solution, and the energy quantity (radioactivity) of the reaction product was measured with a liquid scintillation counter.
The calculation of the inhibitory activity of the test compound against CDK7 was performed as a test compound concentration inhibiting 50% of the amount of ^33P bound to MBP (IC50 value) by using EXSUS (version 8.1.0, manufactured by CAC Exicare Corp.).
(§2) The calculation of a Ki value was performed according to the following calculation expression wherein S represents the concentration of ATP contained in the reaction solution, and Km represents a Michaelis-Menten constant: Ki=IC50/(1+S/Km)

PLK1 = biological target: T2, PLK1 (Homo sapiens, UniProt P53350); assay: PLK1 enzyme (polo-like kinase) inhibition test; format: biochemical; settings: [γ-33P]ATP, casein substrate; Ki=IC50/(1+S/Km); read-out: Ki value of PLK1 inhibitory activity
T2 construct: purchased Carna Biosciences, Inc. 05-157
T2 sequence (P53350 whole entry): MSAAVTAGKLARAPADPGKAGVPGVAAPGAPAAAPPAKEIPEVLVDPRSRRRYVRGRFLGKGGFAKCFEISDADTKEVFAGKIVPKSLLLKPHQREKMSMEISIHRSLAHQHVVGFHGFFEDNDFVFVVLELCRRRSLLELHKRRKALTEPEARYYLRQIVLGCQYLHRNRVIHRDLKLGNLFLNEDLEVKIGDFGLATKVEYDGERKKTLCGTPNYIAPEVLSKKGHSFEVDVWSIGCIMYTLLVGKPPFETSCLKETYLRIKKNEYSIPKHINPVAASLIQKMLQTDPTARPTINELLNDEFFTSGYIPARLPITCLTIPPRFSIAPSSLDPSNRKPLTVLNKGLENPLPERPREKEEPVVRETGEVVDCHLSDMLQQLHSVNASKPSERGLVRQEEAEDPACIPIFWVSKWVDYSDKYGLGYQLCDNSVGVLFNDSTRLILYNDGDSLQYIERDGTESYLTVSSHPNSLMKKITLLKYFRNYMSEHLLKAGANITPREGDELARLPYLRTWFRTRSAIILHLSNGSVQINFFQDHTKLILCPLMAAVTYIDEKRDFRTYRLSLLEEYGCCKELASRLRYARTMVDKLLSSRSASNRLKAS
Experimental: The preparation of a buffer solution was performed by mixing a 3-morpholinopropanesulfonic acid buffer solution (MOPS buffer solution) (pH 7.0), dithiothreitol (DTT), and magnesium acetate (Mg(CH3COO)2). A 1 mM [γ-^33P]ATP solution was used by diluting a 10 mM ATP solution and a commercially available [γ-^33P]ATP solution (manufactured by Perkin Elmer, Inc., Code No. NEG-302H) with the buffer solution. A PLK1 solution was used by diluting commercially available PLK1 (manufactured by Carna Biosciences, Inc., Catalog No. 05-157) with the buffer solution. A substrate solution was used by diluting casein with the buffer solution. As for the preparation of a reaction solution, the buffer solution, the 500 μM [γ-^33P]ATP solution, the PLK1 solution, and the substrate solution were mixed at 4° C. to obtain a reaction solution.
(§3) PLK1 enzyme reaction was performed by adding 5 μL of a test compound solution prepared with 10% DMSO/90% injectable distilled water, and 45 μL of the reaction solution in a 1.5 mL microtube at 4° C. and reacting in the microtube at 30° C. for 20 minutes in a water bath incubator. After the reaction, a 10% aqueous trichloroacetic acid (TCA) solution was added to each microtube while cooled to 4° C., and mixed in a vortex mixer to terminate the reaction. The resultant was left standing at 4° C. for 10 minutes and then centrifuged, and the supernatant was discarded. Next, a 2% aqueous trichloroacetic acid (TCA) solution was added thereto, mixed in a vortex mixer, and then centrifuged, and the supernatant was discarded. This washing operation was performed twice. After the washing, precipitates were dissolved in a 1 N aqueous sodium hydroxide (NaOH) solution, and the energy quantity (radioactivity) of the reaction product was measured with a liquid scintillation counter.
The calculation of the inhibitory activity of the test compound against PLK1 was performed as a test compound concentration inhibiting 50% of the amount of ^33P bound to casein (IC50 value) by using EXSUS (version 8.1.0, manufactured by CAC Exicare Corp.).
as §2

CDK2 = biological target: T3, CDK2 (Homo sapiens, UniProt P24941); assay: CDK2 enzyme inhibition test; format: biochemical; settings: [γ-33P]ATP, MBP substrate; Ki=IC50/(1+S/Km); read-out: Ki value of CDK2 inhibitory activity
T3 construct: purchased Invitrogen Corp. PV3267
Experimental: as §1, with “by Perkin Elmer,” for “by PerkinElmer,”, “A CDK2” for “A CDK7”, “available CDK2” for “available CDK7”, “by Invitrogen Corp.,” for “by Carna Biosciences, Inc.,”, “No. PV3267)” for “No. 04-108)”, “the 500 μM [γ-^33P]ATP solution, the CDK2” for “the CDK7”
as §3, with “CDK2 enzyme reaction” for “PLK1 enzyme reaction”, “mixed in vortex mixer,” for “mixed in a vortex mixer,”
The calculation of the inhibitory activity of the test compound against CDK2 was performed as a test compound concentration inhibiting 50% of the amount of ^33P bound to MBP (IC50 value) by using EXSUS (version 8.1.0, manufactured by CAC Exicare Corp.).
as §2

[1] = test system: human large intestine cancer cell line (HCT-116); assay: Human large intestine cancer (HCT-116) cell growth inhibition test; format: cell-based; settings: HCT-116, 72 h, culture for 3 days, sulforhodamine B, read-out: GI50 value, HCT-116 cell growth inhibition
Experimental: The measurement of a human large intestine cancer cell growth inhibitory effect was carried out by modifying the method of Simak et al. (Cancer Research, 69, 6208 (2009)).
A human large intestine cancer cell line (HCT-116, obtained from DS Pharma Biomedical Co., Ltd.) was cultured in a McCoy's 5A medium (manufactured by Thermo Fisher Scientific, Inc.) containing 10% fetal bovine serum (FBS) (manufactured by Thermo Fisher Scientific, Inc.) and 1% penicillin/streptomycin/amphotericin B (manufactured by Thermo Fisher Scientific, Inc.) and inoculated at 0.5 to 2.0×10^3 cells/well in a 96-well plate. After overnight culture in a carbon dioxide incubator, the medium was replaced with a fresh medium on the next day, and a test compound dissolved in DMSO (final DMSO concentration: 0.1%) was added thereto and left standing in a carbon dioxide incubator. After culture for 3 days, the absorbance thereof was measured by using In Vitro Toxicology Assay Kit Sulforhodamine B based (manufactured by Sigma-Aldrich Co. LLC.).
The rate of inhibition of cell growth at each concentration was calculated from the test compound concentration and the absorbance of sulforhodamine B, and the concentration of the test compound necessary for inhibiting 50% of cell growth (GI50 value) was calculated by using EXSUS (version 8.1.0, manufactured by CAC Exicare Corp.).

T1 sequence (P50613 whole entry): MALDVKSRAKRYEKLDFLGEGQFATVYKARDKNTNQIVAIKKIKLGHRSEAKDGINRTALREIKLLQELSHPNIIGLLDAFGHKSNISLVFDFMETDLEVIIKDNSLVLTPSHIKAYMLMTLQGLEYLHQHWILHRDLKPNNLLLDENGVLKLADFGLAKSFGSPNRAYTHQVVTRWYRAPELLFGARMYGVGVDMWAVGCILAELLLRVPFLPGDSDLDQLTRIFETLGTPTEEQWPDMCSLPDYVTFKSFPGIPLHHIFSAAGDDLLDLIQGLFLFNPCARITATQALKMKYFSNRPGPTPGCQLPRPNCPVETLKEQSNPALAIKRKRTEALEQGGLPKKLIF
T1 sequence (P51946 whole entry partner): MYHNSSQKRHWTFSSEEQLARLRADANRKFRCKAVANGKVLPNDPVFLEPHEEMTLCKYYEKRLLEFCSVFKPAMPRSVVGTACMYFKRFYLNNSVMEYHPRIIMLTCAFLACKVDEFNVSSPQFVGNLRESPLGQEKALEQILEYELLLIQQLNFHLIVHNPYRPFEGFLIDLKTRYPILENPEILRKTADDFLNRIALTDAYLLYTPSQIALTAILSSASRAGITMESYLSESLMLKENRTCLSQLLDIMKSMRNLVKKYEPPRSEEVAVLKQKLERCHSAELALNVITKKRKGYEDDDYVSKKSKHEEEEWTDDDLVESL
T1 sequence (P51948 whole entry partner): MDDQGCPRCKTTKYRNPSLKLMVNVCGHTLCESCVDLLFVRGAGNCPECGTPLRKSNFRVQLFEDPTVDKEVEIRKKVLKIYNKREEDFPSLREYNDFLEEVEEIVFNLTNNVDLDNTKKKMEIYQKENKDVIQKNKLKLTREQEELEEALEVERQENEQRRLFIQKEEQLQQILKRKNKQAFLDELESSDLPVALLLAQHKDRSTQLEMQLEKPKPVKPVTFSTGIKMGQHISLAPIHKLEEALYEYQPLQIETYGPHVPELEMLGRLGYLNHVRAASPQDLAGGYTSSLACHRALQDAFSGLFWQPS

Row | SMILES | Ki (CDK7) [nM] | Ki (PLK1) [nM] | Ki (CDK2) [nM] | GI50 [1] [nM]
1 | CCc1cccc(F)c1NC(=O)N1Cc2c(NC(=O)C(C)(C)[Si](C)(C)C)n[nH]c2C1(C)C [II-137, N-(2-Ethyl-6-fluorophenyl)-6,6-dimethyl-3-[2-methyl-2-(trimethylsilyl)propanamido]-4,6-dihydropyrrolo[3,4-c]pyrazole-5(1H)-carboxamide] | ≤ 50 | ≥ 5000 | ≥ 1000 | ≤ 100
2 | COc1ccc(C)c(F)c1NC(=O)N1Cc2c(NC(=O)C3([Si](C)(C)C)CCC3)n[nH]c2C1(C)C [IV-689, N-(2-Fluoro-6-methoxy-3-methylphenyl)-6,6-dimethyl-3-[1-(trimethylsilyl)cyclobutanecarboxamido]-4,6-dihydropyrrolo[3,4-c]pyrazole-5(1H)-carboxamide] | ≤ 50 | ≥ 5000 | ≥ 1000 | ≤ 100
3 | CC1(C)c2[nH]nc(NC(=O)C3([Si](C)(C)C)CCC3)c2CN1C(=O)Nc1c(F)cccc1C#N [IV-185, N-(2-Cyano-6-fluorophenyl)-6,6-dimethyl-3-[1-(trimethylsilyl)cyclobutanecarboxamido]-4,6-dihydropyrrolo[3,4-c]pyrazole-5 (1H)-carboxamide] | ≤ 50 | ≥ 5000 | ≥ 1000 | ≤ 100
4 | CC1(C)c2[nH]nc(NC(=O)C3([Si](C)(C)C)CCC3)c2CN1C(=O)Nc1cccs1 [IV-1043, 6,6-Dimethyl-N-(thiophen-2-yl)-3-[1-(trimethylsilyl)cyclobutanecarboxamido]-4,6-dihydropyrrolo[3,4-c]pyrazole-5(1H)-carboxamide] | ≤ 50 | ≥ 5000 | ≥ 1000 | ≤ 100
5 | [2H]C([2H])([2H])Oc1cccc(F)c1NC(=O)N1Cc2c(NC(=O)C3([Si](C)(C)C)CCC3)n[nH]c2C1(C)C [IV-177, N-[2-Fluoro-6-(methoxy-d3)phenyl]-6,6-dimethyl-3-[1-(trimethylsilyl)cyclobutanecarboxamido]-4,6-dihydropyrrolo[3,4-c]pyrazole-5(1H)-carboxamide] | ≤ 50 | ≥ 5000 | ≥ 1000 | ≤ 100
6 | CC1(C)c2[nH]nc(NC(=O)C3([Si](C)(C)C)CCC3)c2CN1C(=O)Nc1c(Cl)cc(F)cc1Cl [IV-709, N-(2,6-Dichloro-4-fluorophenyl)-6,6-dimethyl-3-[1-(trimethylsilyl)cyclobutanecarboxamido]-4,6-dihydropyrrolo[3,4-c]pyrazole-5(1H)-carboxamide] | ≤ 50 | ≥ 5000 | ≥ 1000 | ≤ 100
7 | CCc1cccc(F)c1NC(=O)N1Cc2c(NC(=O)C3([Si](C)(C)C)CC3)n[nH]c2C1(C)C [III-137, N-(2-Ethyl-6-fluorophenyl)-6,6-dimethyl-3-[1-(trimethylsilyl)cyclopropanecarboxamido]-4,6-dihydropyrrolo[3,4-c]pyrazole-5 (1H)-carboxamide] | ≤ 50 | ≥ 5000 | ≥ 1000 | ≤ 100
8 | CC1(C)c2[nH]nc(NC(=O)C(C)(C)[Si](C)(C)C)c2CN1C(=O)Nc1c(Cl)cccc1Cl [II-199, N-(2,6-Dichlorophenyl)-6,6-dimethyl-3-[2-methyl-2-(trimethylsilyl)propanamido]-4,6-dihydropyrrolo[3,4-c]pyrazole-5(1H)-carboxamide] | ≤ 50 | ≥ 5000 | ≥ 1000 | ≤ 100
9 | Cc1ccc(F)c(NC(=O)N2Cc3c(NC(=O)C4([Si](C)(C)C)CCC4)n[nH]c3C2(C)C)c1F [IV-609, N-(2,6-Difluoro-3-methylphenyl)-6,6-dimethyl-3-[1-(trimethylsilyl)cyclobutanecarboxamido]-4,6-dihydropyrrolo[3,4-c]pyrazole-5(1H)-carboxamide] | ≤ 50 | ≥ 5000 | ≥ 1000 | ≤ 100
10 | CC1(C)c2[nH]nc(NC(=O)C3([Si](C)(C)C)CC3)c2CN1C(=O)Nc1c(F)cccc1OC(F)F [III-169, N-[2-(Difluoromethoxy)-6-fluorophenyl]-6,6-dimethyl-3-[1-(trimethylsilyl)cyclopropanecarboxamido]-4,6-dihydropyrrolo[3,4-c]pyrazole-5(1H)-carboxamide] | ≤ 50 | ≥ 5000 | ≥ 1000 | ≤ 100
